Laboratory results taken from the supplement of paper PMC10307832.

How the values were obtained:
Assay in all cases: relative viability (nuclei count vs DMSO), 5 days (fraction); higher = more cells survive
NCI-H23 = system: NCI-H23
Procedure, shortened: (§1)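 Lung cancer cell lines were pin-tool dosed in 1536-well plates on the day after seeding, with either a lone drug or a fixed anchor-drug dose plus five library-drug doses (not always all listed) in √10 steps. Nuclei were counted on 4× images after 5 days. Relative viability is the ratio of treated-well to vehicle-well nuclei counts, with each value a median of duplicate plates.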

HOP-62 = system: HOP-62
Procedure, shortened: as §1

ABC-1 = system: ABC-1
Procedure, shortened: as §1

NCI-H1395 = system: NCI-H1395
Procedure, shortened: as §1

NCI-H2126 = system: NCI-H2126
Procedure, shortened: as §1

NCI-H1944 = system: NCI-H1944
Procedure, shortened: as §1

HCC-78 = system: HCC-78
Procedure, shortened: as §1

NCI-H1993 = system: NCI-H1993
Procedure, shortened: as §1

HCC-366 = system: HCC-366
Procedure, shortened: as §1

EMC-BAC-2 = system: EMC-BAC-2
Procedure, shortened: as §1

LC-2-ad = system: LC-2-ad
Procedure, shortened: as §1

NCI-H2228 = system: NCI-H2228
Procedure, shortened: as §1

ChaGo-K-1 = system: ChaGo-K-1
Procedure, shortened: as §1

HARA = system: HARA
Procedure, shortened: as §1

HCC-15 = system: HCC-15
Procedure, shortened: as §1

NCI-H358 = system: NCI-H358
Procedure, shortened: as §1

NCI-H838 = system: NCI-H838
Procedure, shortened: as §1

SK-LU-1 = system: SK-LU-1
Procedure, shortened: as §1

NCI-H2405 = system: NCI-H2405
Procedure, shortened: as §1

NCI-H2023 = system: NCI-H2023
Procedure, shortened: as §1

COR-L23 = system: COR-L23
Procedure, shortened: as §1

NCI-H1793 = system: NCI-H1793
Procedure, shortened: as §1

CC(=O)O[C@@]12CO[C@@H]1C[C@H](O)[C@@]1(C)C(=O)[C@H](O)C3=C(C)[C@@H](OC(=O)[C@H](O)[C@@H](NC(=O)OC(C)(C)C)c4ccccc4)C[C@@](O)([C@@H](OC(=O)c4ccccc4)[C@H]21)C3(C)C [Docetaxel] + Cc1cc(Nc2cc(N3CCN(C)CC3)nc(Sc3ccc(NC(=O)C4CC4)cc3)n2)n[nH]1 [Tozasertib] (partner 0.1 µM)
relative viability (NCI-H23; first compound 0.0002 µM): 0.39 | relative viability (NCI-H23; first compound 0.000632 µM): 0.314 | relative viability (NCI-H23; first compound 0.002 µM): 0.195 | relative viability (NCI-H23; first compound 0.006325 µM): 0.198 | relative viability (NCI-H23; first compound 0.02 µM): 0.166 | relative viability (HOP-62; first compound 0.0002 µM): 0.353 | relative viability (HOP-62; first compound 0.000632 µM): 0.401 | relative viability (HOP-62; first compound 0.002 µM): 0.281 | relative viability (HOP-62; first compound 0.006325 µM): 0.277 | relative viability (ABC-1; first compound 0.0002 µM): 0.15 | relative viability (ABC-1; first compound 0.000632 µM): 0.191 | relative viability (ABC-1; first compound 0.002 µM): 0.195 | relative viability (ABC-1; first compound 0.006325 µM): 0.159 | relative viability (ABC-1; first compound 0.02 µM): 0.218 | relative viability (NCI-H1395; first compound 0.0002 µM): 0.698 | relative viability (NCI-H1395; first compound 0.000632 µM): 0.753 | relative viability (NCI-H1395; first compound 0.002 µM): 0.59 | relative viability (NCI-H1395; first compound 0.006325 µM): 0.372 | relative viability (NCI-H1395; first compound 0.02 µM): 0.325 | relative viability (NCI-H2126; first compound 0.0002 µM): 0.785 | relative viability (NCI-H2126; first compound 0.000632 µM): 0.45 | relative viability (NCI-H2126; first compound 0.002 µM): 0.359 | relative viability (NCI-H2126; first compound 0.006325 µM): 0.354 | relative viability (NCI-H2126; first compound 0.02 µM): 0.237 | relative viability (NCI-H1944; first compound 0.0002 µM): 0.23 | relative viability (NCI-H1944; first compound 0.000632 µM): 0.223 | relative viability (NCI-H1944; first compound 0.002 µM): 0.235 | relative viability (NCI-H1944; first compound 0.006325 µM): 0.194 | relative viability (NCI-H1944; first compound 0.02 µM): 0.15 | relative viability (HCC-78; first compound 0.0002 µM): 0.386 | relative viability (HCC-78; first compound 0.000632 µM): 0.436 | relative viability (HCC-78; first compound 0.002 µM): 0.278 | relative viability (HCC-78; first compound 0.006325 µM): 0.344 | relative viability (HCC-78; first compound 0.02 µM): 0.368 | relative viability (NCI-H1993; first compound 0.0002 µM): 0.644 | relative viability (NCI-H1993; first compound 0.000632 µM): 0.592 | relative viability (NCI-H1993; first compound 0.002 µM): 0.604 | relative viability (NCI-H1993; first compound 0.006325 µM): 0.515 | relative viability (NCI-H1993; first compound 0.02 µM): 0.586 | relative viability (HCC-366; first compound 0.0002 µM): 0.097 | relative viability (HCC-366; first compound 0.000632 µM): 0.0628 | relative viability (HCC-366; first compound 0.002 µM): 0.0488 | relative viability (HCC-366; first compound 0.006325 µM): 0.0475 | relative viability (HCC-366; first compound 0.02 µM): 0.0231 | relative viability (EMC-BAC-2; first compound 0.0002 µM): 0.296 | relative viability (EMC-BAC-2; first compound 0.000632 µM): 0.321 | relative viability (EMC-BAC-2; first compound 0.006325 µM): 0.26 | relative viability (EMC-BAC-2; first compound 0.02 µM): 0.185 | relative viability (LC-2-ad; first compound 0.0002 µM): 0.487 | relative viability (LC-2-ad; first compound 0.000632 µM): 0.395 | relative viability (LC-2-ad; first compound 0.002 µM): 0.302 | relative viability (LC-2-ad; first compound 0.006325 µM): 0.37 | relative viability (NCI-H2228; first compound 0.0002 µM): 0.242 | relative viability (NCI-H2228; first compound 0.000632 µM): 0.169 | relative viability (NCI-H2228; first compound 0.002 µM): 0.127 | relative viability (NCI-H2228; first compound 0.006325 µM): 0.168 | relative viability (NCI-H2228; first compound 0.02 µM): 0.121 | relative viability (ChaGo-K-1; first compound 0.0002 µM): 0.218 | relative viability (ChaGo-K-1; first compound 0.002 µM): 0.201 | relative viability (ChaGo-K-1; first compound 0.006325 µM): 0.199 | relative viability (ChaGo-K-1; first compound 0.02 µM): 0.185 | relative viability (HARA; first compound 0.0002 µM): 0.0918 | relative viability (HARA; first compound 0.000632 µM): 0.102 | relative viability (HARA; first compound 0.002 µM): 0.0951 | relative viability (HARA; first compound 0.006325 µM): 0.0945 | relative viability (HARA; first compound 0.02 µM): 0.0738 | relative viability (HCC-15; first compound 0.0002 µM): 0.391 | relative viability (HCC-15; first compound 0.000632 µM): 0.266 | relative viability (HCC-15; first compound 0.002 µM): 0.174 | relative viability (HCC-15; first compound 0.006325 µM): 0.239 | relative viability (HCC-15; first compound 0.02 µM): 0.135 | relative viability (NCI-H358; first compound 0.0002 µM): 0.114 | relative viability (NCI-H358; first compound 0.000632 µM): 0.112 | relative viability (NCI-H358; first compound 0.006325 µM): 0.137 | relative viability (NCI-H358; first compound 0.02 µM): 0.117 | relative viability (NCI-H838; first compound 0.0002 µM): 0.236 | relative viability (NCI-H838; first compound 0.000632 µM): 0.27 | relative viability (NCI-H838; first compound 0.002 µM): 0.258 | relative viability (NCI-H838; first compound 0.006325 µM): 0.28 | relative viability (NCI-H838; first compound 0.02 µM): 0.193 | relative viability (SK-LU-1; first compound 0.0002 µM): 0.297 | relative viability (SK-LU-1; first compound 0.000632 µM): 0.302 | relative viability (SK-LU-1; first compound 0.002 µM): 0.308 | relative viability (SK-LU-1; first compound 0.006325 µM): 0.252 | relative viability (SK-LU-1; first compound 0.02 µM): 0.217 | relative viability (NCI-H2405; first compound 0.0002 µM): 0.699 | relative viability (NCI-H2405; first compound 0.000632 µM): 0.556 | relative viability (NCI-H2405; first compound 0.002 µM): 0.461 | relative viability (NCI-H2405; first compound 0.006325 µM): 0.361 | relative viability (NCI-H2405; first compound 0.02 µM): 0.278 | relative viability (NCI-H2023; first compound 0.0002 µM): 0.317 | relative viability (NCI-H2023; first compound 0.000632 µM): 0.288 | relative viability (NCI-H2023; first compound 0.002 µM): 0.11 | relative viability (NCI-H2023; first compound 0.006325 µM): 0.158 | relative viability (NCI-H2023; first compound 0.02 µM): 0.0697 | relative viability (COR-L23; first compound 0.0002 µM): 0.199 | relative viability (COR-L23; first compound 0.000632 µM): 0.21 | relative viability (COR-L23; first compound 0.002 µM): 0.141 | relative viability (COR-L23; first compound 0.006325 µM): 0.153 | relative viability (COR-L23; first compound 0.02 µM): 0.133 | relative viability (NCI-H1793; first compound 0.0002 µM): 0.372 | relative viability (NCI-H1793; first compound 0.000632 µM): 0.285 | relative viability (NCI-H1793; first compound 0.002 µM): 0.197 | relative viability (NCI-H1793; first compound 0.006325 µM): 0.195 | relative viability (NCI-H1793; first compound 0.02 µM): 0.136
